Reference: ChEMBL document CHEMBL5356975, “Brønsted Acid-Mediated Conversion of Naturally Abundant Lathyrane Diterpenes: Are Rare 10,11-seco-Lathyrane Diterpenes Artifacts?” (J Nat Prod, 2024)
Active and inactive are the calls of the source. No cut-off for these calls is given here.

What was measured:
BV-2 [1] = experiment: Antineuroinflammatory activity in LPS induced mouse BV-2 cells assessed as reduction in COX-2 protein expression at 10 uM pretreated for 4 hrs followed by LPS addition and measured after 24 hrs by Western blot analysis; assay type: functional, cell-based; conditions: time 28.0 hrs
BV-2 [2] = experiment: Antineuroinflammatory activity in LPS induced mouse BV-2 cells assessed as reduction in iNOS protein expression at 10 uM pretreated for 4 hrs followed by LPS addition and measured after 24 hrs by Western blot analysis; assay type: functional, cell-based; conditions: time 28.0 hrs
BV-2 [3] = experiment: Cytotoxicity against mouse BV-2 cells assessed as reduction in cell viability at 20 uM incubated for 24 hrs by MTT assay; assay type: toxicity, cell-based; conditions: bv-2, 24 h
BV-2 [4] = experiment: Antineuroinflammatory activity in LPS induced mouse BV-2 cells assessed as inhibition of NO production pretreated for 4 hrs followed by LPS addition and measured after 24 hrs by griess reagent based assay; assay type: functional, cell-based
BV-2 [5] = experiment: Antineuroinflammatory activity in LPS induced mouse BV-2 cells assessed as inhibition of NO production at 20 uM pretreated for 4 hrs followed by LPS addition and measured after 24 hrs by griess reagent based assay relative to control; assay type: functional; conditions: time 28 hrs

IC50 (BV-2 [4]) [µM] | SMILES | Activity (BV-2 [3]) | also measured
6.2 | C=CC(=O)OC(C)(C)[C@@H]1/C=C/[C@@H](C)C(=O)[C@@]2(O)C[C@H](C)[C@H](O)[C@@H]2[C@@H](O)C(=C)CC1 | Non-Toxic | Activity (BV-2 [1]): Active; Activity (BV-2 [2]): Active; inhibition at 20 µM (BV-2 [5]): 73%
– | C=C1CC[C@H](C(C)(C)OC(=O)CC)/C=C/[C@@H](C)C(=O)[C@@]2(O)C[C@H](C)[C@H](O)[C@@H]2[C@H]1O | Non-Toxic | –
18 | C=C1[C@@H](O)C[C@H](C(C)(C)OCCCO)/C=C/[C@@H](C)C(=O)[C@@]2(O)C[C@H](C)[C@H](O)[C@@H]2[C@H]1O | Non-Toxic | inhibition at 20 µM (BV-2 [5]): 56%
7.7 | C=CC(=O)OC(C)(C)[C@@H]1/C=C/[C@@H](C)C(=O)[C@@]2(O)C[C@H](C)[C@H](O)[C@@H]2[C@@H](O)C(=C)[C@@H](O)C1 | Non-Toxic | inhibition at 20 µM (BV-2 [5]): 70%
– | C=C1CC[C@H](C(C)(C)OC(=O)COCC)/C=C/[C@@H](C)C(=O)[C@@]2(O)C[C@H](C)[C@H](O)[C@@H]2[C@H]1O | Non-Toxic | –
– | C=C1CC[C@H](C(C)(C)OC)/C=C/[C@@H](C)C(=O)[C@@]2(O)C[C@H](C)[C@H](O)[C@@H]2[C@H]1O | Non-Toxic | –
13 | C=C1CC[C@H](C(C)(C)OCCCO)/C=C/[C@@H](C)C(=O)[C@@]2(O)C[C@H](C)[C@H](O)[C@@H]2[C@H]1O | Non-Toxic | inhibition at 20 µM (BV-2 [5]): 63%
– | C=C1CC[C@H](C(C)(C)OCC)/C=C/[C@@H](C)C(=O)[C@@]2(O)C[C@H](C)[C@H](O)[C@@H]2[C@H]1O | Non-Toxic | –
– | C=C1[C@@H](O)C[C@H](C(C)(C)OCC)/C=C/[C@@H](C)C(=O)[C@@]2(O)C[C@H](C)[C@H](O)[C@@H]2[C@H]1O | Non-Toxic | –
– | C=C1[C@@H](O)C[C@H](C(C)(C)OC(=O)COCC)/C=C/[C@@H](C)C(=O)[C@@]2(O)C[C@H](C)[C@H](O)[C@@H]2[C@H]1O | Non-Toxic | –
– | C=C1[C@@H](O)C[C@H](C(C)(C)OC)/C=C/[C@@H](C)C(=O)[C@@]2(O)C[C@H](C)[C@H](O)[C@@H]2[C@H]1O | Non-Toxic | –
– | C=C1[C@@H](O)C[C@H](C(C)(C)OC(=O)CC)/C=C/[C@@H](C)C(=O)[C@@]2(O)C[C@H](C)[C@H](O)[C@@H]2[C@H]1O | Non-Toxic | –
– | C=C1[C@@H](O)C[C@H](C(C)(C)OC(C)=O)/C=C/[C@@H](C)C(=O)[C@@]2(O)C[C@H](C)[C@H](O)[C@@H]2[C@H]1O | Non-Toxic | –
– | C=C1CC[C@H](C(C)(C)OC(C)=O)/C=C/[C@@H](C)C(=O)[C@@]2(O)C[C@H](C)[C@H](O)[C@@H]2[C@H]1O | Non-Toxic | –

SMILES | IC50 (BV-2 [4]) [µM] | Activity (BV-2 [3]) | also measured
O=c1c(O)c(-c2ccc(O)c(O)c2)oc2cc(O)cc(O)c12 [QUERCETIN] | 10 | – | –
